# In patent publication US7741484B2, “Process for synthesis of phenoxy diaminopyrimidine derivatives” (Roche Palo Alto LLC, priority 2005, dated 2010):
# Biological target: T1, rat P2X3 receptor (Rattus norvegicus, UniProt P49654)
# T1 construct: expressed in transfected cells; host or cells: CHO-K1
# T1 sequence (P49654 1-397): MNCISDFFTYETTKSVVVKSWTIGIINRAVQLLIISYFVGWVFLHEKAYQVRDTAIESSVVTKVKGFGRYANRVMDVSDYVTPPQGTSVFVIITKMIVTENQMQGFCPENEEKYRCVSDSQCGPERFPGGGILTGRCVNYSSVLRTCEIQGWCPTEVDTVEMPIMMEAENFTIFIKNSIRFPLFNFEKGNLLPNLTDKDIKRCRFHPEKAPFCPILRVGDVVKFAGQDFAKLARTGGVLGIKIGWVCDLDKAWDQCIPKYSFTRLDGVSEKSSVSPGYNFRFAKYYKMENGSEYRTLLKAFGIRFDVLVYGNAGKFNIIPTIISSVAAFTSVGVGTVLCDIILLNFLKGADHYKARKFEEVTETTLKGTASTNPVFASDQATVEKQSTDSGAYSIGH
# Test: P2X3 FLIPR (Fluorometric Imaging Plate Reader) assay, inhibition of α,β-meATP-evoked calcium fluorescence
# Type: cell-based
# Settings: CHO-K1 cells transfected with cloned rat P2X3; agonist α,β-meATP 1 μM; Fluo-3 AM; read-out: pIC50 for the P2X3 receptor (converted)
# Procedure: CHO-K1 cells were transfected with cloned rat P2X3 or human P2X2/3 receptor subunits and passaged in flasks. 18-24 hours before the FLIPR experiment, cells were released from their flasks, centrifuged, and resuspended in nutrient medium at 2.5×10^5 cells/ml. The cells were aliquoted into black-walled 96-well plates at a density of 50,000 cells/well and incubated overnight in 5% CO2 at 37° C. On the day of the experiment, cells were washed in FLIPR buffer (calcium- and magnesium-free Hank's balanced salt solution, 10 mM HEPES, 2 mM CaCl2, 2.5 mM probenecid; FB). Each well received 100 μl FB and 100 μl of the fluorescent dye Fluo-3 AM [2 μM final conc.]. […]
# Test compounds (dissolved in DMSO at 10 mM and serially diluted with FB) or vehicle were added to each well (25 μl of a 4× solution) and allowed to equilibrate for 20 minutes at room temperature. The plates were then placed in the FLIPR and a baseline fluorescence measurement (excitation at 488 nm and emission at 510-570 nm) was obtained for 10 seconds before a 100 μl/well agonist or vehicle addition. […] Fluorescence was measured for an additional 2 minutes at 1 second intervals after agonist addition. A final addition of ionomycin (5 μM, final concentration) was made to each well of the FLIPR test plate to establish cell viability and maximum fluorescence of dye-bound cytosolic calcium. […]
structure (smiles),measurement,value
"COc1cc(C(C)C)c(Oc2cnc(N)nc2N)cc1I [5-(5-Iodo-2-isopropyl-4-methoxy-phenoxy)-pyrimidine-2,4-diamine]",IC50,~10 nM
